Laboratory results taken from patent publication US5925664A, “Method for treating ocular hypertension and glaucoma” (Sankyo Company, Limited, priority 1994, dated 1999).

What was measured:
[1] = eye application; cited from earlier work
[2] = system: ocular hypertension model; assay: Ocular tension lowering effect in rabbit ocular hypertension model (eye drops); format: in vivo, New Zealand white rabbits; details: 50 μl by dropping; for AUC (area between the ocular tension curves of control group and drug application group): over 2 hours; for Maximum value of the lowered ocular tension: over 2 hours at intervals of 30 minutes
Protocol: New Zealand white rabbits each weighing 2 to 3 kg were used.
According to the method reported by Kurihara et al. [Ophthalmologic Pharmacology 4, 62-64, (1990)], an ocular hypertension model was prepared to examine the ocular tension lowering effect of the test compounds. After general anaesthesia with urethane, the ocular tension of the test rabbit was determined by use of a tonometer (Alcon Applanation Pneumatonography).
After a local anaesthetic was applied to the rabbit eye by dropping, 0.1 ml of 5% sodium chloride solution was injected into the vitreous body through a 30-gauge injection needle. At the time, 30 minutes after injection, when ocular hypertension was confirmed, 50 μl of a sample solution was applied by dropping. Then, the ocular tension was determined over 2 hours at intervals of 30 minutes.
The area (AUC) between the ocular tension curve obtained from the control group (without drug application) and that obtained from the drug application group, and the maximum value of the lowered ocular tension were calculated to regard as the indices of ocular tension lowering effect.

Compound	AUC (area between the ocular tension curves of control group and drug application group) ([2]; applied concentration 1.0%) [mmHg · hr]	Maximum value of the lowered ocular tension ([2]; applied concentration 1.0%) [mmHg]	further results
CCCCC(=O)N(Cc1ccc(-c2ccccc2-c2nnn[nH]2)cc1)[C@H](C(=O)O)C(C)C [CGP 48933]	–	–	ocular tension lowering activity [1]: showed ocular tension lowering activity
CCCCC(=O)N(Cc1ccc(-c2ccccc2-c2nnn[nH]2)cc1)CC1(C(=O)O)CCCC1 [CGP 49870]	–	–	ocular tension lowering activity [1]: showed ocular tension lowering activity
CCCc1nc(C(C)(C)O)c(C(=O)O)n1Cc1ccc(-c2ccccc2-c2nn[nH]n2)cc1 [Compound A]	11.18	9.8	–
CCCc1nc(C(C)(C)O)c(C(=O)O)n1Cc1ccc(-c2ccccc2C(=O)O)cc1 [Compound B]	3.21	2.6	–
CCCc1nc(C(C)C)c(C(=O)O)n1Cc1ccc(-c2ccccc2-c2nn[nH]n2)cc1 [Compound C]	3.98	2.7	–
CCCc1nc(CC)c(C(=O)O)n1Cc1ccc(-c2ccccc2-c2nn[nH]n2)cc1 [Compound D]	–	–	AUC (area between the ocular tension curves of control group and drug application group) ([2]; applied concentration 0.2%): 6.21 mmHg · hr; Maximum value of the lowered ocular tension ([2]; applied concentration 0.2%): 6.4 mmHg
CCCCc1nc(C(C)(C)O)c(C(=O)O)n1Cc1ccc(-c2ccccc2C(=O)O)cc1 [Compound E]	4.90	7.6	–
CCCc1nc(C(C)(C)O)c(C(=O)O)n1Cc1ccc(-c2nn[nH]n2)cc1 [Compound F]	4.93	4.7	–
CCCc1nc(C(C)O)c(C(=O)O)n1Cc1ccc(-c2ccccc2-c2nn[nH]n2)cc1 (stereo not drawn) [Compound G]	5.45	8.6	–
CCCc1nc(C(C)(C)O)c(C(=O)O)n1Cc1ccc(-c2ccccc2C(=O)C(=O)O)cc1 [Compound H]	5.58	8.6	–
CCc1nc2cccc(C(=O)O)c2n1Cc1ccc(-c2ccccc2C(=O)C(=O)O)cc1 [Compound I]	5.33	7.3	–
CCCCc1nc(Cl)c(CO)n1Cc1ccc(-c2ccccc2-c2nnn[nH]2)cc1 [DUP 753, reference compound]	0.28	1.3	AUC (area between the ocular tension curves of control group and drug application group) ([2]; applied concentration 3.0%): 2.38 mmHg · hr; Maximum value of the lowered ocular tension ([2]; applied concentration 3.0%): 3.5 mmHg
